Data as given in PubChem BioAssay (NCI).
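Each compound was tested at five concentrations against cells in 96-well plates for 48 hours. The concentration for 50% growth inhibition is given as GI50. At the TGI there is no net growth.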

Columns and labels:
Test in all cases: NCI anticancer screen, dose series, 48 h
BT-549 breast = tested on: BT-549 breast
OVCAR-4 ovarian = tested on: OVCAR-4 ovarian
IGROV1 ovarian = tested on: IGROV1 ovarian
SK-MEL-5 melanoma = tested on: SK-MEL-5 melanoma
COLO 205 colon = tested on: COLO 205 colon
ACHN renal = tested on: ACHN renal
MALME-3M melanoma = tested on: MALME-3M melanoma
MDA-MB-435 = tested on: MDA-MB-435
NCI-H226 lung = tested on: NCI-H226 lung
SNB-75 CNS = tested on: SNB-75 CNS
HS 578T breast = tested on: HS 578T breast
UO-31 renal = tested on: UO-31 renal
HCT-15 colon = tested on: HCT-15 colon
UACC-62 melanoma = tested on: UACC-62 melanoma
MDA-MB-231 breast = tested on: MDA-MB-231 breast
M14 melanoma = tested on: M14 melanoma
NCI-H23 lung = tested on: NCI-H23 lung
EKVX NSCLC = tested on: EKVX NSCLC
RXF 393 renal = tested on: RXF 393 renal
MOLT-4 leukemia = tested on: MOLT-4 leukemia
SF-295 CNS = tested on: SF-295 CNS
HOP-62 NSCLC = tested on: HOP-62 NSCLC
HL-60(TB) leukemia = tested on: HL-60(TB) leukemia
SK-MEL-28 melanoma = tested on: SK-MEL-28 melanoma
OVCAR-8 ovarian = tested on: OVCAR-8 ovarian
A498 renal = tested on: A498 renal
SK-MEL-2 melanoma = tested on: SK-MEL-2 melanoma
SN12C renal = tested on: SN12C renal
T-47D breast = tested on: T-47D breast
HOP-92 NSCLC = tested on: HOP-92 NSCLC
786-0 renal = tested on: 786-0 renal
HCC-2998 colon = tested on: HCC-2998 colon
HT29 colon = tested on: HT29 colon
SF-539 CNS = tested on: SF-539 CNS
MCF7 breast = tested on: MCF7 breast
OVCAR-5 ovarian = tested on: OVCAR-5 ovarian
K-562 leukemia = tested on: K-562 leukemia
SR leukemia = tested on: SR leukemia
SF-268 CNS = tested on: SF-268 CNS
UACC-257 melanoma = tested on: UACC-257 melanoma
KM12 colon = tested on: KM12 colon
SW-620 colon = tested on: SW-620 colon
OVCAR-3 ovarian = tested on: OVCAR-3 ovarian
U251 CNS = tested on: U251 CNS
NCI-H522 lung = tested on: NCI-H522 lung
HCT-116 colon = tested on: HCT-116 colon
CCRF-CEM leukemia = tested on: CCRF-CEM leukemia
TK-10 renal = tested on: TK-10 renal
NCI-H460 lung = tested on: NCI-H460 lung
SNB-19 CNS = tested on: SNB-19 CNS
CAKI-1 renal = tested on: CAKI-1 renal
LOX IMVI melanoma = tested on: LOX IMVI melanoma
A549 NSCLC = tested on: A549 NSCLC
NCI/ADR-RES ovarian = tested on: NCI/ADR-RES ovarian
RPMI-8226 leukemia = tested on: RPMI-8226 leukemia
SK-OV-3 ovarian = tested on: SK-OV-3 ovarian
DU-145 prostate = tested on: DU-145 prostate
PC-3 prostate = tested on: PC-3 prostate

## CCOc1ccc(C(=O)Nc2ncc(Cc3ccc(F)cc3)s2)cc1
BT-549 breast
  GI50: 1730 nM
  TGI: > 100000 nM
OVCAR-4 ovarian
  GI50: 1630 nM
  TGI: > 100000 nM
IGROV1 ovarian
  GI50: 409 nM
  TGI: > 100000 nM
SK-MEL-5 melanoma
  GI50: 322 nM
  TGI: > 100000 nM
COLO 205 colon
  GI50: 164 nM
ACHN renal
  GI50: 455 nM
  TGI: > 100000 nM
MALME-3M melanoma
  GI50: 1130 nM
  TGI: > 100000 nM
MDA-MB-435
  GI50: 22.1 nM
  TGI: 55.1 nM
NCI-H226 lung
  GI50: 319 nM
  TGI: 7630 nM
SNB-75 CNS
  GI50: 69.3 nM
  TGI: 3440 nM
HS 578T breast
  GI50: 399 nM
  TGI: > 39300 nM
UO-31 renal
  GI50: 350 nM
  TGI: > 66500 nM
HCT-15 colon
  GI50: 49.4 nM
  TGI: > 100000 nM
UACC-62 melanoma
  GI50: 107 nM
  TGI: > 100000 nM
MDA-MB-231 breast
  GI50: 371 nM
  TGI: > 86100 nM
M14 melanoma
  GI50: 94.1 nM
  TGI: > 100000 nM
NCI-H23 lung
  GI50: 466 nM
  TGI: > 100000 nM
EKVX NSCLC
  GI50: 347 nM
  TGI: > 100000 nM
RXF 393 renal
  GI50: 151 nM
  TGI: 672 nM
MOLT-4 leukemia
  GI50: 151 nM
  TGI: > 100000 nM
SF-295 CNS
  GI50: 144 nM
  TGI: > 33000 nM
HOP-62 NSCLC
  GI50: 309 nM
  TGI: > 50000 nM
HL-60(TB) leukemia
  GI50: 52 nM
  TGI: 4680 nM
SK-MEL-28 melanoma
  GI50: 1230 nM
  TGI: > 100000 nM
OVCAR-8 ovarian
  GI50: 376 nM
  TGI: > 52300 nM
A498 renal
  GI50: > 34000 nM
  TGI: > 90500 nM
SK-MEL-2 melanoma
  GI50: 117 nM
SN12C renal
  GI50: 345 nM
  TGI: > 100000 nM
T-47D breast
  GI50: 248 nM
  TGI: > 100000 nM
HOP-92 NSCLC
  GI50: 8750 nM
  TGI: > 86100 nM
786-0 renal
  GI50: 340 nM
  TGI: > 54500 nM
HCC-2998 colon
  GI50: 213 nM
  TGI: > 100000 nM
HT29 colon
  GI50: 77.1 nM
SF-539 CNS
  GI50: 161 nM
  TGI: 2750 nM
MCF7 breast
  GI50: 53.7 nM
  TGI: > 100000 nM
OVCAR-5 ovarian
  GI50: 387 nM
  TGI: > 100000 nM
K-562 leukemia
  GI50: 44.3 nM
  TGI: > 100000 nM
SR leukemia
  GI50: 34.4 nM
  TGI: > 100000 nM
SF-268 CNS
  GI50: 4610 nM
  TGI: > 91900 nM
UACC-257 melanoma
  TGI: > 100000 nM
KM12 colon
  GI50: 83.6 nM
  TGI: > 100000 nM
SW-620 colon
  GI50: 77.8 nM
  TGI: > 100000 nM
OVCAR-3 ovarian
  GI50: 162 nM
  TGI: > 22200 nM
U251 CNS
  GI50: 230 nM
  TGI: > 62600 nM
NCI-H522 lung
  GI50: 78.1 nM
  TGI: 375 nM
HCT-116 colon
  GI50: 93 nM
  TGI: > 100000 nM
CCRF-CEM leukemia
  GI50: 108 nM
  TGI: > 52700 nM
TK-10 renal
  GI50: 29300 nM
  TGI: > 75900 nM
NCI-H460 lung
  GI50: 113 nM
  TGI: > 100000 nM
SNB-19 CNS
  GI50: 402 nM
  TGI: > 100000 nM
CAKI-1 renal
  GI50: 74.9 nM
  TGI: > 44200 nM
LOX IMVI melanoma
  GI50: 145 nM
  TGI: > 100000 nM
A549 NSCLC
  GI50: 257 nM
  TGI: > 100000 nM
NCI/ADR-RES ovarian
  GI50: 117 nM
  TGI: > 100000 nM
RPMI-8226 leukemia
  GI50: 157 nM
  TGI: > 100000 nM
SK-OV-3 ovarian
  GI50: 289 nM
  TGI: > 64900 nM
DU-145 prostate
  GI50: 387 nM
  TGI: > 100000 nM
PC-3 prostate
  GI50: 169 nM
  TGI: > 100000 nM
